Experiments:
B-Raf(V600E) [1] = molecular target: T1, B-Raf(V600E) (Homo sapiens, UniProt P15056, V600E); experiment: B-Raf(V600E)/MEK1(WT) cellular TR-FRET assay (double stable HEK293 T-Rex cells); format: cell-based; settings: MEK(WT) substrate, ~2h compound treatment, SD in parentheses (n=4-6); for IC50: 384-well
T1 construct: Full-length B-Raf wild-type (WT) and B-Raf(V600E) (NM_004333) cDNAs were subcloned from pcDNA3.1 into pcDNA5TO; expressed in transfected cells

B-Raf(V600E) [2] = molecular target: T1, B-Raf(V600E); experiment: B-Raf(V600E)/MEK1(KD) cellular TR-FRET assay (double stable HEK293 T-Rex cells); format: cell-based; settings: for IC50: B-Raf(V600E) TR-FRET, kinase-inactive MEK(KD) substrate, 384-well, ~2h compound treatment, SD in parentheses (n=4-6)
B-Raf(V600E) [3] = molecular target: T1, B-Raf(V600E); experiment: B-Raf(V600E)/cSTKpep-3 cellular TR-FRET assay (double stable HEK293 T-Rex cells); format: cell-based; settings: cSTKpep-3 substrate, ~2h compound treatment, SD in parentheses (n=4-6); for IC50: 384-well
AKT = molecular target: T2, AKT (Homo sapiens, UniProt P31749); experiment: AKT/cSTKpep-3 cellular TR-FRET assay (transient, HEK293); format: cell-based; settings: Fig. 7C; comparable potencies in both assays
T2 construct: expressed in transfected cells; host or cells: HEK293 (transient co-transfection)

[4] = system: AKT activation (Ser473 phosphorylation); experiment: p-AKT(Ser473) cellular TR-FRET assay with His-tagged AKT (HEK293); format: cell-based, human; settings: for observed potency (concentration range), AKT phosphorylation assay: Fig. 7B, comparable potencies in both assays
CamK2δ = experiment: CamK2δ/cSTKpep-1 cellular TR-FRET assay (transient, HEK 293); format: cell-based; settings: 5min ionomycin treatment (1µM)
Protocol: HEK293 cells were transfected using Fugene 6 (Roche) at a density of 8000 cells/well in 384-well plates and a final transfection volume of 30μl. The amounts of kinase and substrate plasmids per well varied for each experiment and are specified in the figure legends. Cell lysis and detection of phosphorylated or total substrate levels was performed 48h post transfection by addition of 30μl detection buffer (50 mM Hepes pH 7.2, 0.1% BSA, 20mM EDTA, 0.8M KF, and 2% Triton) containing anti-FLAG XL665 (2ng/ul) and Eu-pSTK (0.18ng/μl) or Eu-pMEK1 (0.24ng/μl). For the relative determination of total substrate levels 30μl detection buffer was added per well containing anti-FLAG XL665 (2ng/μl) and Eu-cMyc (0.3ng/μl). Plates were incubated for 3-6h at room temperature and TR-FRET readings taken on Acquest, Analyst GT (Molecular Devices Corp.), Envision or Viewlux (Perkin Elmer) plate readers. […]
Fig. (8). Induction of CamK2δ activity. Transient transfection reactions were performed in 384-well plates as indicated. HEK 293 were reverse transfected with 50ng CamK2δ and 50ng (black bars) or 25ng (gray bars) cSTKpep-1. CamK2δ activity was induced through 5min ionomycin treatment (1µM) and p-cSTKpep-1 was quantified by TR-FRET.

[5] = system: B-Raf(V600E)-Ba/F3 cell line; experiment: B-Raf(V600E)-Ba/F3 proliferation assay (Cell-Titer-Glo); format: cell-based; settings: 384-well, called historical data, SD in parentheses (n=4-6)
Protocol: The B-Raf(V600E)-Ba/F3 cell line was generously provided by Markus Warmuth (GNF). Ba/F3 cells were counted and diluted to a final concentration of 75,000 cells/ml in RPMI media and 50μl/well were plated into 384-well white solid bottom plates. 50nl of a 10mM compound stock in DMSO were pintool transferred followed by a 48h incubation time at 37°C for 48h. Finally, 25μl Cell-Titer-Glo (Promega) detection reagent was added each and luminescence read were taken on a […] (Molecular Devices Corp.) reader.

T1 sequence (P15056 whole entry V600E): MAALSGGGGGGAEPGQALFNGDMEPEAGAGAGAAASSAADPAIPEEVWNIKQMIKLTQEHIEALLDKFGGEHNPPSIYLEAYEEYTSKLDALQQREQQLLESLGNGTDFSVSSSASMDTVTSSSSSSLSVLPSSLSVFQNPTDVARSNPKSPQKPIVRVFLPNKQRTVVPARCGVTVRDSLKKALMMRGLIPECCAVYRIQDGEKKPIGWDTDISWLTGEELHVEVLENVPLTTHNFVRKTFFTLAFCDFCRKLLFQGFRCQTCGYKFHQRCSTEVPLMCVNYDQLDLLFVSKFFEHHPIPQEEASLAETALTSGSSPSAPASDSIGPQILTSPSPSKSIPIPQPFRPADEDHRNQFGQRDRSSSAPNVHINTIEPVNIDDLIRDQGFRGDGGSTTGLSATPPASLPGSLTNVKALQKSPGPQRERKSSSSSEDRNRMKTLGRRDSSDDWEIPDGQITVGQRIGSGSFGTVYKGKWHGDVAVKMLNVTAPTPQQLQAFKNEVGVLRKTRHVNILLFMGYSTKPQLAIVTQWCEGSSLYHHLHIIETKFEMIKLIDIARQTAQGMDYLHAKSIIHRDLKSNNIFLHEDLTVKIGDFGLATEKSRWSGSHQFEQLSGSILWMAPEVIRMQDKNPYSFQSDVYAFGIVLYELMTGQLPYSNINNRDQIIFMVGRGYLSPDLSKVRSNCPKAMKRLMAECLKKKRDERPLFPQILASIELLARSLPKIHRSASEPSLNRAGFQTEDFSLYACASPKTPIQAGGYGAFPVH
T2 sequence (P31749 whole entry): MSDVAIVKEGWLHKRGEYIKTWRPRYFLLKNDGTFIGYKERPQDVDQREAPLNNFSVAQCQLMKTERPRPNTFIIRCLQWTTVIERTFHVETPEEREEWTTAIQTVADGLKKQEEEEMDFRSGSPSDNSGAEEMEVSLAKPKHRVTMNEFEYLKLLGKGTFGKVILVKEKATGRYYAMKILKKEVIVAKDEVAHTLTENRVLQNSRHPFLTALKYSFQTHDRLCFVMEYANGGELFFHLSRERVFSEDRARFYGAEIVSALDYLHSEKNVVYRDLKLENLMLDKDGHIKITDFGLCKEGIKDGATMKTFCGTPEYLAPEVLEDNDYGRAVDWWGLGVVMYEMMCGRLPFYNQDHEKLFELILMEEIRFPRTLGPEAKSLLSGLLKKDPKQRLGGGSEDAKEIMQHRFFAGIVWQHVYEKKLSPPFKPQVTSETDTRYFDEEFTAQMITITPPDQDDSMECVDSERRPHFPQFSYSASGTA

SMILES | IC50 (B-Raf(V600E) [1]) [µM] | IC50 MEK(WT) 384-well (B-Raf(V600E) [1]) | IC50 (B-Raf(V600E) [2]) [µM] | IC50 (B-Raf(V600E) [3]) [µM] | IC50 cSTKpep-3 384-well (B-Raf(V600E) [3]) | observed potency (concentration range), cSTKpep-3 phosphorylation assay (AKT) | observed potency (concentration range), AKT phosphorylation assay [4] | further results
O=c1cc(N2CCOCC2)oc2c(-c3ccccc3)cccc12 [LY294002, 2-(4-morpholinyl)-8-phenyl-4H-1-benzopyran-4-one] | > 33 | did not show any activity | > 33 | > 33 | did not show any activity | low micromolar | low micromolar | –
C[C@H](CCC(=O)O)C[C@H](C)C[C@H](C)C(=O)/C=C(\O)[C@H](C)C[C@H](C)C/C=C/[C@@H](C)[C@@H](O)[C@@H](C)[C@@H](O)C[C@@H]1CC[C@@](C)([C@H]2CC[C@@](C)([C@@H](C)O)O2)O1 [ionomycin] | – | – | – | – | – | – | – | induction of CamK2δ activity / cSTKpep-1 phosphorylation (CamK2δ): ionomycin inducible
CN[C@@H]1C[C@H]2O[C@@](C)([C@@H]1OC)n1c3ccccc3c3c4c(c5c6ccccc6n2c5c31)C(=O)NC4 [Staurosporine] | – | – | – | – | – | – | – | factor between activity on p-AKT versus p-cSTKpep-3 ([4]; p-AKT IC50 versus p-cSTKpep-3 IC50): ~ 100 fold
COC[C@H]1OC(=O)c2coc3c2[C@@]1(C)C1=C(C3=O)[C@@H]2CCC(=O)[C@@]2(C)C[C@H]1OC(C)=O [Wortmannin] | > 33 | did not show any activity | > 33 | > 33 | did not show any activity | low nanomolar | low nanomolar | –
O=C(NOC[C@H](O)CO)c1ccc(F)c(F)c1Nc1ccc(I)cc1F [PD0325901] | – | – | – | – | – | – | – | IC50 MEK(KD) 384-well (B-Raf(V600E) [2]): inactive; IC50 ([5]; Mus musculus, BaF3, 48h): […]
